# Measurements reported in ChEMBL document CHEMBL5291721, “A preclinical secondary pharmacology resource illuminates target-adverse drug reaction associations of marketed drugs” (Nat Commun, 2023).
# Tests used:
# [1] = molecular target: Voltage-gated inwardly rectifying potassium channel KCNH2 (Homo sapiens, UniProt Q12809); type: functional; details: read-out: AC50
# [2] = molecular target: T1, 5-hydroxytryptamine receptor 1A (Homo sapiens, UniProt P08908)
# T1 sequence (P08908 whole entry): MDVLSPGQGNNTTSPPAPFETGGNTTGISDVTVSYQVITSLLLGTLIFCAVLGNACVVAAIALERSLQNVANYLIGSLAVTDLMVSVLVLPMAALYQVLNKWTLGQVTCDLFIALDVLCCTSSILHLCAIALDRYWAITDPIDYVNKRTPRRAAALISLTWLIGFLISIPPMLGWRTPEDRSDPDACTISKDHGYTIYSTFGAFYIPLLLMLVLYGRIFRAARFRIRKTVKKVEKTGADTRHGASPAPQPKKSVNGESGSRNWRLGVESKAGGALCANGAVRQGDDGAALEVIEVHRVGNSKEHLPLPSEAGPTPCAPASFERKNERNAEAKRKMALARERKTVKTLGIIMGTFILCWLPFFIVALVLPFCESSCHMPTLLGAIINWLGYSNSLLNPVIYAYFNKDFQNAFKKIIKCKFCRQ
# Acetylcholinesterase = Acetylcholinesterase (Homo sapiens, UniProt P22303); type: functional
# Prothrombin = Prothrombin (Homo sapiens, UniProt P00734); type: functional
# [3] = molecular target: T2, Muscarinic acetylcholine receptor M2 (Homo sapiens, UniProt P08172)
# T2 sequence (P08172 whole entry): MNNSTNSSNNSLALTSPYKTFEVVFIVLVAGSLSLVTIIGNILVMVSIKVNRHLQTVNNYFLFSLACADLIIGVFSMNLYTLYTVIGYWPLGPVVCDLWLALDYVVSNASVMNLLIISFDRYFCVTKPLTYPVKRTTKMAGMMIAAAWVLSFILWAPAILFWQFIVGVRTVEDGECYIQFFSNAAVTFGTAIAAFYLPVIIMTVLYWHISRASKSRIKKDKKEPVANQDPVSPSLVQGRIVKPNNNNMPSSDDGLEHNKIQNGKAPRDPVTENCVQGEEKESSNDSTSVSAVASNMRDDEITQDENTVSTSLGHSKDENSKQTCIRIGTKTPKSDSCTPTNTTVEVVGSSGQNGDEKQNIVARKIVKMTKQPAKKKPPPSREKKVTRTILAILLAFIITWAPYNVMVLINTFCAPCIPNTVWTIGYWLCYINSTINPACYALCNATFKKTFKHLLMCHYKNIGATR
# [4] = molecular target: Sodium-dependent dopamine transporter (Homo sapiens, UniProt Q01959)
# Thromboxane A2 receptor [5] = molecular target: T3, Thromboxane A2 receptor (Homo sapiens, UniProt P21731); type: functional, cell-based
# T3 sequence (P21731 whole entry): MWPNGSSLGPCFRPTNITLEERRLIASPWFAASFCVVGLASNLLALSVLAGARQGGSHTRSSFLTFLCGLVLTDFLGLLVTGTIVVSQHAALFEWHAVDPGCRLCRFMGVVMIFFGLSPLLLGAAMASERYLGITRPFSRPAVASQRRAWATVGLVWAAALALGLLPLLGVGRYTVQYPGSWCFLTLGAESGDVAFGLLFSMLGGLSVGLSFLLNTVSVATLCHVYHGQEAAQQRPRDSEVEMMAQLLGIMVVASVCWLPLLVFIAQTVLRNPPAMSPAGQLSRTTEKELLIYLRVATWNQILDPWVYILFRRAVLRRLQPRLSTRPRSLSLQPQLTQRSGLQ
# Mu-type opioid receptor = Mu-type opioid receptor (Homo sapiens, UniProt P35372)
# [6] = molecular target: Sodium-dependent noradrenaline transporter (Homo sapiens, UniProt P23975)
# [7] = molecular target: 5-hydroxytryptamine receptor 2B (Homo sapiens, UniProt P41595); type: functional, cell-based
# D(1A) dopamine receptor = D(1A) dopamine receptor (Homo sapiens, UniProt P21728)
# [8] = molecular target: cGMP-inhibited 3',5'-cyclic phosphodiesterase 3A (Homo sapiens, UniProt Q14432); type: functional
# Histamine H3 receptor = Histamine H3 receptor (Homo sapiens, UniProt Q9Y5N1)
# [9] = molecular target: T4, Prostaglandin G/H synthase 1 (Homo sapiens, UniProt P23219); type: functional
# [10] = molecular target: T5, Amine oxidase [flavin-containing] A (Homo sapiens, UniProt P21397); type: functional
# T5 sequence (P21397 whole entry): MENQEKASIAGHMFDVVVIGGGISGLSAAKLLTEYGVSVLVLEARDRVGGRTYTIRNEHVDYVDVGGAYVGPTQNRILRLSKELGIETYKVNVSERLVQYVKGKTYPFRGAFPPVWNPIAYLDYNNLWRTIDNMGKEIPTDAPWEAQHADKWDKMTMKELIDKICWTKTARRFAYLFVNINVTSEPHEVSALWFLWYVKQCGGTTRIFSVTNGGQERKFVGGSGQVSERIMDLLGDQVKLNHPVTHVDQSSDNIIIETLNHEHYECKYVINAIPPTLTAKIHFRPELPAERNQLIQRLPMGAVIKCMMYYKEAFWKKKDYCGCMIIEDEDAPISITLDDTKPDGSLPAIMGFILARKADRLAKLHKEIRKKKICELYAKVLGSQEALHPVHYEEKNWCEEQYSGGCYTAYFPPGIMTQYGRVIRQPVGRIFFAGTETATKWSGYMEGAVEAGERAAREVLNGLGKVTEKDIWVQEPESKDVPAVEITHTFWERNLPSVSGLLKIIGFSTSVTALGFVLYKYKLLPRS
# Thromboxane A2 receptor [11] = molecular target: T3, Thromboxane A2 receptor; type: functional, cell-based; remark: listed apart in the source
# [12] = molecular target: 3',5'-cyclic-AMP phosphodiesterase 4A (Homo sapiens, UniProt P27815); type: functional
# [13] = molecular target: T4, Prostaglandin G/H synthase 1; type: functional; remark: listed apart in the source
# D(3) dopamine receptor = D(3) dopamine receptor (Homo sapiens, UniProt P35462)
# Further: assay procedure not described here.
# Sequence of D(3) dopamine receptor (P35462 whole entry): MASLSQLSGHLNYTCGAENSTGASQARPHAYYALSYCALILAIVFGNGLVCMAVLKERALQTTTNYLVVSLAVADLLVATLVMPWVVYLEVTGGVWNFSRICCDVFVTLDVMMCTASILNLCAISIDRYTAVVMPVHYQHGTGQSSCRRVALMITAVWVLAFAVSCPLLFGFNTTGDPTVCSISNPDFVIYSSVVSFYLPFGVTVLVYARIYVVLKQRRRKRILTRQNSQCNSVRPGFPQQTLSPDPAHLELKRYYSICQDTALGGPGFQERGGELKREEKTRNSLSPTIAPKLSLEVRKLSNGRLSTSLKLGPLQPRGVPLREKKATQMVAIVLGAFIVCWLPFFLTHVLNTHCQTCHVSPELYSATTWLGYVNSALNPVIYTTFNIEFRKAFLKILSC
# Sequence of Mu-type opioid receptor (P35372 whole entry): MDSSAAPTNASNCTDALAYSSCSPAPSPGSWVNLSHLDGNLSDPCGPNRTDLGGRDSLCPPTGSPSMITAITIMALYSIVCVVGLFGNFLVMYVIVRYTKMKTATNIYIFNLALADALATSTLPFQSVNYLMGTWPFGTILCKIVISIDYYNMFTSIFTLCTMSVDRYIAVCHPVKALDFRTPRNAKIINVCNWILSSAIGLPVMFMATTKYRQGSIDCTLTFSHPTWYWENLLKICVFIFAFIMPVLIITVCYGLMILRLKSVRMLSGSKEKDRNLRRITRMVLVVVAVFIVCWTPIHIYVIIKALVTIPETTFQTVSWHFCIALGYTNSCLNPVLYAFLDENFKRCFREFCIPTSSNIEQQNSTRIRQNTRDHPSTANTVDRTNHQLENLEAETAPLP
# Sequence of Voltage-gated inwardly rectifying potassium channel KCNH2 (Q12809 whole entry): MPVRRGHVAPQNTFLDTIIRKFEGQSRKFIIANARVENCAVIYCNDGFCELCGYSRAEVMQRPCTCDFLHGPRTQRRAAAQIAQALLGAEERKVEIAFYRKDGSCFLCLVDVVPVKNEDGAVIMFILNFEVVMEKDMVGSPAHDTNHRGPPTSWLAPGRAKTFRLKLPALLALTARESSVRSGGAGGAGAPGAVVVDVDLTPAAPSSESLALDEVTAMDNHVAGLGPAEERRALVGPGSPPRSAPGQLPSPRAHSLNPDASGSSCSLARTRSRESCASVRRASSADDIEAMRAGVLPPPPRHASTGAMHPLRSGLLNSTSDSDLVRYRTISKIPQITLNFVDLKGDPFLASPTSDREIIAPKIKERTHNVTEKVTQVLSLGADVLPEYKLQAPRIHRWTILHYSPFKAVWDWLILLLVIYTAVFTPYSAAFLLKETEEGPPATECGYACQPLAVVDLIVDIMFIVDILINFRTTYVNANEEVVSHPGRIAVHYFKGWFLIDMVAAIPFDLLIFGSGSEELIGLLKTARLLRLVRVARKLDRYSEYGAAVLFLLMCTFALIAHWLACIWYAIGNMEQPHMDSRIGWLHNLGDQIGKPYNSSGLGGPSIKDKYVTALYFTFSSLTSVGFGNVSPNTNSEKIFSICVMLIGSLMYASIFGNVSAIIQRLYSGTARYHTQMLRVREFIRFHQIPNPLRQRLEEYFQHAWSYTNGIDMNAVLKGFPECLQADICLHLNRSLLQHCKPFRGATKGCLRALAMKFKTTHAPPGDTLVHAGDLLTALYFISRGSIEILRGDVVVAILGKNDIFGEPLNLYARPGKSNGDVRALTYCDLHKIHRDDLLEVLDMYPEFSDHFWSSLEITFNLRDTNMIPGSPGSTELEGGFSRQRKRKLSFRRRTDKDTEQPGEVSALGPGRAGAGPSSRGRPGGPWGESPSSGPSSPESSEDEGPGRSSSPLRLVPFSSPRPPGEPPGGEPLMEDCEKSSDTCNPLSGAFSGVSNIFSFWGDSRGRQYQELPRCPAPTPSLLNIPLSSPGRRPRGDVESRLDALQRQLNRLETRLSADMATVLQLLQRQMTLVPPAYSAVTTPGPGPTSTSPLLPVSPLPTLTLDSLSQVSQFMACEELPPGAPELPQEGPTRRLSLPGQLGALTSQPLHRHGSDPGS
# Sequence of Sodium-dependent dopamine transporter (Q01959 whole entry): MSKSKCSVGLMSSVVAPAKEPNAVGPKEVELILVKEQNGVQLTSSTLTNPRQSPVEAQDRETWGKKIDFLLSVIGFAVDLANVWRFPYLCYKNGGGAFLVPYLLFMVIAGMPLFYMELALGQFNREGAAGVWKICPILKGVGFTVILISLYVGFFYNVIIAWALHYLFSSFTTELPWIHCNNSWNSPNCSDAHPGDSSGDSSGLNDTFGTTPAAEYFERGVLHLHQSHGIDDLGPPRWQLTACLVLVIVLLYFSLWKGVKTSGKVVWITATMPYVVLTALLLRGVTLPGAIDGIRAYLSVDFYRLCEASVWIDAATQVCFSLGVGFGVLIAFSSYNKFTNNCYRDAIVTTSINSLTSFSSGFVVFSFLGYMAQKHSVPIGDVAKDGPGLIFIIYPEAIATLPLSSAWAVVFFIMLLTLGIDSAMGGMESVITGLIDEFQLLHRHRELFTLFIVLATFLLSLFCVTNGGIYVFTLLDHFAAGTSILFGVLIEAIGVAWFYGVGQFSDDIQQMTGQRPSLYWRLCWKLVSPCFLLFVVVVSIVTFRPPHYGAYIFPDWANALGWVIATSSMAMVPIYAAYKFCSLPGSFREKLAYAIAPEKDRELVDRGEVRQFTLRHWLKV
# Sequence of Acetylcholinesterase (P22303 whole entry): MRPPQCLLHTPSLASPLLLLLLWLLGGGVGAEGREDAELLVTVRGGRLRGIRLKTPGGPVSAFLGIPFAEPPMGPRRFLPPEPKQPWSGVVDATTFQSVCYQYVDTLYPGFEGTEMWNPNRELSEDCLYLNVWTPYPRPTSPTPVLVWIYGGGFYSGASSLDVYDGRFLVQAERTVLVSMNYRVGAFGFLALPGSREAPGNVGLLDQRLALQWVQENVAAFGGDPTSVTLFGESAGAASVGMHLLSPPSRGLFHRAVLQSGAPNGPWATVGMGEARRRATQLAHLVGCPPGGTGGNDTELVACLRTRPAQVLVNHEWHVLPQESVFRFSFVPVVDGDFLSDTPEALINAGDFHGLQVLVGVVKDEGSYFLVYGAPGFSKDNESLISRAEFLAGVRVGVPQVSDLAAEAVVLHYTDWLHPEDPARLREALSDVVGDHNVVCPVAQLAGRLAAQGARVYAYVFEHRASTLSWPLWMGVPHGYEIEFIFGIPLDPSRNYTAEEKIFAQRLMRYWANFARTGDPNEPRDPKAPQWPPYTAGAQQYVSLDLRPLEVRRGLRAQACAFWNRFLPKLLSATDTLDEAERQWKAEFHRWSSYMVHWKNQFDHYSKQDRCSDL
# Sequence of Sodium-dependent noradrenaline transporter (P23975 whole entry): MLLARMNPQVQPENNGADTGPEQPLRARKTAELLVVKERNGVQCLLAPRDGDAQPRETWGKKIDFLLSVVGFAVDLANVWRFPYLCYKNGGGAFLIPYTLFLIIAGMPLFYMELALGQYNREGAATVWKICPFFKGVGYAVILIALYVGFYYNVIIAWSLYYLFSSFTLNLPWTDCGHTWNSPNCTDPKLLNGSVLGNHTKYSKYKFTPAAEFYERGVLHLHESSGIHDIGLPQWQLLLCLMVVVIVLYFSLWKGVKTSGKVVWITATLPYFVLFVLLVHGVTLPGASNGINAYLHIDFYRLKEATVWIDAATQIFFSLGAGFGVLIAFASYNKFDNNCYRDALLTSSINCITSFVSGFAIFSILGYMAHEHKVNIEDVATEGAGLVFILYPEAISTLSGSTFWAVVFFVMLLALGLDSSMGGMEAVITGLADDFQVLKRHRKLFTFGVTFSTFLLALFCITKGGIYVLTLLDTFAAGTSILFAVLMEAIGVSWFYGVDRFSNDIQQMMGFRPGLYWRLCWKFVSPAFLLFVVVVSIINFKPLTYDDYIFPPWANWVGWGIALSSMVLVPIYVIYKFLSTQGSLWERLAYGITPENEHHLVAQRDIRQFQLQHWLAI
# Sequence of D(1A) dopamine receptor (P21728 whole entry): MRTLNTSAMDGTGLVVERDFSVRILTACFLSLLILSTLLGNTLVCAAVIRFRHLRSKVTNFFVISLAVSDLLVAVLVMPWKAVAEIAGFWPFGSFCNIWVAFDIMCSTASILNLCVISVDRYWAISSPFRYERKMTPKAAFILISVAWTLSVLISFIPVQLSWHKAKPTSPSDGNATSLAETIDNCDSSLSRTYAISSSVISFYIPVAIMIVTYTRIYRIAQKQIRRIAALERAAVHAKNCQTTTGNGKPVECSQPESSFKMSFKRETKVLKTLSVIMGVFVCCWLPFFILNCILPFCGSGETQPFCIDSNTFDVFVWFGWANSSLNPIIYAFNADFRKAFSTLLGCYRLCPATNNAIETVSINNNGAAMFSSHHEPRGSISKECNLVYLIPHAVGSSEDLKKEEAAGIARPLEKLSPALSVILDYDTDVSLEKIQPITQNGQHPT
# T4 sequence (P23219 whole entry): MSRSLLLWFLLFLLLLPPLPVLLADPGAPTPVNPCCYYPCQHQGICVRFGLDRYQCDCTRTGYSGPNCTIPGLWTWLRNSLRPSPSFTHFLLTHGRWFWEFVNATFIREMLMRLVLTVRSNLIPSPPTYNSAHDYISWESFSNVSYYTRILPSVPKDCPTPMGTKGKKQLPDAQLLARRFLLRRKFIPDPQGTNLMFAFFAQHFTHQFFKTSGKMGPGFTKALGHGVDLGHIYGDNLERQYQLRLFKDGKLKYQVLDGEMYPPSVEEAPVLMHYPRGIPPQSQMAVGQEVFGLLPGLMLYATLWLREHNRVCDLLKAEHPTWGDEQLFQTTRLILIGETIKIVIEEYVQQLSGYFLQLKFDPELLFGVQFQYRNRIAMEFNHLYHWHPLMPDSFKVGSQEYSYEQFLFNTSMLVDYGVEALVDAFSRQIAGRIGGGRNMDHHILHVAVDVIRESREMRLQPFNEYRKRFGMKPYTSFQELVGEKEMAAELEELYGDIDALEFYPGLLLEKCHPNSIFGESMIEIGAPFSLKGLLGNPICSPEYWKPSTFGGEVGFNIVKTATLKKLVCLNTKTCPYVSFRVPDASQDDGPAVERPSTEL
smiles,measurement,setting,value
CCCN(CCc1cccs1)[C@H]1CCc2c(O)cccc2C1 [ROTIGOTINE],AC50,[1],3.8 µM
CCc1oc2ccccc2c1C(=O)c1cc(Br)c(O)c(Br)c1 [BENZBROMARONE],AC50,[1],> 30 µM
NC(=O)c1ncn([C@@H]2O[C@H](CO)[C@@H](O)[C@H]2O)n1 [RIBAVIRIN],AC50,[1],> 30 µM
CC[C@@H](CO)NC(=O)[C@@H]1C=C2c3cccc4[nH]cc(c34)C[C@H]2N(C)C1 [METHYLERGONOVINE],AC50,[1],> 30 µM
CC(C)N(CCCCOCC(=O)NS(C)(=O)=O)c1cnc(-c2ccccc2)c(-c2ccccc2)n1 [SELEXIPAG],AC50,[1],> 30 µM
[H]/N=C(\N/C(=N/[H])NCCCCCCNC(=N)NC(=N)Nc1ccc(Cl)cc1)Nc1ccc(Cl)cc1 [CHLORHEXIDINE],AC50,[1],16.3 µM
CC(C)C[C@H](CN)CC(=O)O [PREGABALIN],AC50,[1],> 30 µM
CNCCC=C1c2ccccc2CCc2ccccc21 [NORTRIPTYLINE],AC50,[1],2.59 µM
Cc1cnc(NC(=O)C2=C(O)c3ccccc3S(=O)(=O)N2C)s1 [MELOXICAM],AC50,[1],> 30 µM
O=C1CN2Cc3c(ccc(Cl)c3Cl)N=C2N1 [ANAGRELIDE],AC50,[1],> 30 µM
CC[C@H]1OC(=O)[C@H](C)[C@@H](O[C@H]2C[C@@](C)(OC)[C@@H](O)[C@H](C)O2)[C@H](C)[C@@H](O[C@@H]2O[C@H](C)C[C@H](N(C)C)[C@H]2O)[C@](C)(O)C[C@@H](C)/C(=N\OCOCCOC)[C@H](C)[C@@H](O)[C@]1(C)O [ROXITHROMYCIN],AC50,[1],> 30 µM
CC(=O)S[C@@H]1CC2=CC(=O)CC[C@]2(C)[C@H]2CC[C@@]3(C)[C@@H](CC[C@@]34CCC(=O)O4)[C@H]12 [SPIRONOLACTONE],AC50,[1],> 30 µM
COC(=O)[C@H](c1ccccc1Cl)N1CCc2sccc2C1 [CLOPIDOGREL],AC50,[1],26.1 µM
Nc1nc(O)c2ncn(COC(CO)CO)c2n1 [GANCICLOVIR],AC50,[1],> 30 µM
Cc1cc(CC(=O)O)n(C)c1C(=O)c1ccc(Cl)cc1 [ZOMEPIRAC],AC50,[1],> 30 µM
CC(=N)N1CC[C@H](SC2=C(C(=O)O)N3C(=O)[C@H]([C@@H](C)O)[C@H]3C2)C1,AC50,[1],15 µM
C[C@]12CCC(=O)C=C1CC[C@@H]1[C@@H]2[C@@H](O)C[C@@]2(C)[C@H]1CC[C@]2(O)C(=O)COC(=O)CCC(=O)O [HYDROCORTISONE HEMISUCCINATE ANHYDROUS],AC50,[2],> 30 µM
same,AC50,Acetylcholinesterase,> 30 µM
same,AC50,Prothrombin,> 30 µM
same,AC50,[3],> 30 µM
same,AC50,[4],> 30 µM
same,AC50,Thromboxane A2 receptor [5],> 30 µM
same,AC50,Mu-type opioid receptor,> 30 µM
same,AC50,[6],> 30 µM
same,AC50,[7],> 30 µM
same,AC50,D(1A) dopamine receptor,> 30 µM
same,AC50,[8],> 30 µM
same,AC50,Histamine H3 receptor,> 30 µM
same,AC50,[1],> 30 µM
same,AC50,[9],> 30 µM
same,AC50,[10],> 30 µM
same,AC50,Thromboxane A2 receptor [11],> 30 µM
same,AC50,[12],> 30 µM
same,AC50,[13],> 30 µM
CCOc1cc(CC(=O)N[C@@H](CC(C)C)c2ccccc2N2CCCCC2)ccc1C(=O)O [REPAGLINIDE],AC50,[1],> 30 µM
CN1C[C@H](C(=O)N[C@]2(C)O[C@@]3(O)[C@@H]4CCCN4C(=O)[C@H](Cc4ccccc4)N3C2=O)C[C@@H]2c3cccc4[nH]cc(c34)C[C@H]21 [DIHYDROERGOTAMINE],AC50,[1],10 µM
Cn1c(=O)c2[nH]cnc2n(C)c1=O [THEOPHYLLINE],AC50,[2],> 30 µM
same,AC50,Acetylcholinesterase,> 30 µM
same,AC50,Prothrombin,> 30 µM
same,AC50,[3],> 30 µM
same,AC50,[4],> 30 µM
same,AC50,Thromboxane A2 receptor [5],> 30 µM
same,AC50,Mu-type opioid receptor,> 30 µM
same,AC50,[6],> 30 µM
same,AC50,[7],> 30 µM
same,AC50,D(1A) dopamine receptor,> 30 µM
same,AC50,D(3) dopamine receptor,> 30 µM
same,AC50,Histamine H3 receptor,> 30 µM
same,AC50,[1],> 30 µM
same,AC50,[9],> 30 µM
same,AC50,[10],> 30 µM
same,AC50,Thromboxane A2 receptor [11],> 30 µM
same,AC50,[13],> 30 µM
CC(/C=C1\SC(=S)N(CC(=O)O)C1=O)=C\c1ccccc1,AC50,[1],> 30 µM
CO/N=C(\C(=O)N[C@@H]1C(=O)N2C(C(=O)O)=C(COC(N)=O)CS[C@H]12)c1ccco1 [CEFUROXIME],AC50,[1],> 30 µM
COc1ccnc(C[S+]([O-])c2nc3ccc(OC(F)F)cc3[nH]2)c1OC (configuration not stated) [PANTOPRAZOLE],AC50,[1],> 30 µM
CN1CCC[C@@H]1Cc1c[nH]c2ccc(CCS(=O)(=O)c3ccccc3)cc12,AC50,[2],0.0214 µM
same,AC50,Acetylcholinesterase,> 30 µM
same,AC50,Prothrombin,> 30 µM
same,AC50,[4],26.6 µM
same,AC50,Thromboxane A2 receptor [5],> 30 µM
same,AC50,Mu-type opioid receptor,8 µM
same,AC50,[6],17.8 µM
same,AC50,[7],> 10 µM
same,AC50,D(1A) dopamine receptor,27.7 µM
same,AC50,D(3) dopamine receptor,> 30 µM
same,AC50,[8],> 30 µM
same,AC50,Histamine H3 receptor,5.7 µM
same,AC50,[9],> 30 µM
same,AC50,[10],> 30 µM
same,AC50,Thromboxane A2 receptor [11],> 30 µM
same,AC50,[12],> 30 µM
same,AC50,[13],> 30 µM
COc1ccc(Cc2nccc3cc(OC)c(OC)cc23)cc1OC [PAPAVERINE],AC50,[1],5.6 µM
O=C(Nc1c(Cl)cncc1Cl)c1ccc(OC(F)F)c(OCC2CC2)c1 [ROFLUMILAST],AC50,[1],> 30 µM
CC1(C)O[C@@H]2C[C@H]3[C@@H]4C[C@H](F)C5=CC(=O)C=C[C@]5(C)[C@H]4[C@@H](O)C[C@]3(C)[C@]2(C(=O)CO)O1 [FLUNISOLIDE],AC50,[1],> 30 µM
NCCc1ccc(O)cc1 [TYRAMINE],AC50,[2],7.88 µM
same,AC50,Acetylcholinesterase,> 30 µM
same,AC50,Prothrombin,> 30 µM
same,AC50,[3],> 30 µM
same,AC50,[4],> 30 µM
same,AC50,Thromboxane A2 receptor [5],> 30 µM
same,AC50,Mu-type opioid receptor,> 30 µM
same,AC50,[6],22.2 µM
same,AC50,[7],> 30 µM
same,AC50,[8],> 30 µM
same,AC50,Histamine H3 receptor,> 30 µM
same,AC50,[1],> 30 µM
same,AC50,[9],> 3 µM
same,AC50,[10],> 30 µM
same,AC50,Thromboxane A2 receptor [11],> 30 µM
same,AC50,[12],> 30 µM
same,AC50,[13],> 30 µM
C[C@H]1Oc2cc(cnc2N)-c2c(nn(C)c2C#N)CN(C)C(=O)c2ccc(F)cc21 [LORLATINIB],AC50,[1],> 30 µM
CCCCCCCCNC(C)C(O)c1ccc(SC(C)C)cc1 (configuration not stated) [SULOCTIDIL],AC50,[2],0.216 µM
same,AC50,Acetylcholinesterase,> 30 µM
same,AC50,Prothrombin,> 30 µM
same,AC50,[3],3.41 µM
same,AC50,[4],2.21 µM
same,AC50,Mu-type opioid receptor,7.07 µM
same,AC50,[6],1.39 µM
same,AC50,[7],> 30 µM
same,AC50,D(1A) dopamine receptor,11.3 µM
same,AC50,D(3) dopamine receptor,0.671 µM
same,AC50,[8],> 30 µM
same,AC50,Histamine H3 receptor,27.4 µM
same,AC50,[1],0.43 µM
same,AC50,[9],15.5 µM
same,AC50,[10],> 30 µM
same,AC50,Thromboxane A2 receptor [11],> 10 µM
same,AC50,[12],20.9 µM
same,AC50,[13],> 30 µM
